Reference: PubChem BioAssay (NCI)
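These data come from cells grown in 96-well plates and exposed to compound for 48 hours at five concentrations. At the GI50, growth is halved. TGI denotes the concentration required for complete inhibition of growth.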

Key:
Assay in all cases: DTP human tumour cell line panel, 48 h
[1] = system: 786-0 renal
[2] = system: A498 renal
[3] = system: A549 NSCLC
[4] = system: ACHN renal
[5] = system: BT-549 breast
[6] = system: CAKI-1 renal
[7] = system: CCRF-CEM leukemia
[8] = system: COLO 205 colon
[9] = system: DU-145 prostate
[10] = system: EKVX NSCLC
[11] = system: HCC-2998 colon
[12] = system: HCT-116 colon
[13] = system: HCT-15 colon
[14] = system: HL-60(TB) leukemia
[15] = system: HOP-62 NSCLC
[16] = system: HOP-92 NSCLC
[17] = system: HS 578T breast
[18] = system: HT29 colon
[19] = system: IGROV1 ovarian
[20] = system: K-562 leukemia
[21] = system: KM12 colon
[22] = system: LOX IMVI melanoma
[23] = system: M14 melanoma
[24] = system: MALME-3M melanoma
[25] = system: MCF7 breast
[26] = system: MDA-MB-231 breast
[27] = system: MDA-MB-435
[28] = system: MOLT-4 leukemia
[29] = system: NCI-H226 lung
[30] = system: NCI-H23 lung
[31] = system: NCI-H460 lung
[32] = system: NCI-H522 lung
[33] = system: NCI/ADR-RES ovarian
[34] = system: OVCAR-3 ovarian
[35] = system: OVCAR-4 ovarian
[36] = system: OVCAR-5 ovarian
[37] = system: OVCAR-8 ovarian
[38] = system: PC-3 prostate
[39] = system: RPMI-8226 leukemia
[40] = system: RXF 393 renal
[41] = system: SF-268 CNS
[42] = system: SF-295 CNS
[43] = system: SF-539 CNS
[44] = system: SK-MEL-2 melanoma
[45] = system: SK-MEL-28 melanoma
[46] = system: SK-MEL-5 melanoma
[47] = system: SK-OV-3 ovarian
[48] = system: SN12C renal
[49] = system: SNB-19 CNS
[50] = system: SNB-75 CNS
[51] = system: SR leukemia
[52] = system: SW-620 colon
[53] = system: T-47D breast
[54] = system: TK-10 renal
[55] = system: U251 CNS
[56] = system: UACC-257 melanoma
[57] = system: UACC-62 melanoma
[58] = system: UO-31 renal

## COC(=O)[C@@H](C)CNS(=O)(=O)N(c1cc(C(F)(F)F)cc(C(F)(F)F)c1)C1CCN(Cc2ccc(F)cc2)CC1
[1]
  GI50: 11.2 µM
  TGI: 24 µM
[2]
  GI50: 12.8 µM
  TGI: 26.2 µM
[3]
  GI50: 14 µM
  TGI: 31 µM
[4]
  GI50: 14 µM
  TGI: 30 µM
[5]
  GI50: 8.34 µM
  TGI: 22.9 µM
[6]
  GI50: 7.23 µM
  TGI: 22.3 µM
[7]
  GI50: 12.8 µM
  TGI: 30.7 µM
[8]
  GI50: 1.88 µM
  TGI: 3.59 µM
[9]
  GI50: 13.4 µM
  TGI: 27.4 µM
[10]
  GI50: 12.2 µM
  TGI: 28.9 µM
[11]
  GI50: 3.01 µM
  TGI: 11.7 µM
[12]
  GI50: 4.41 µM
  TGI: 16.4 µM
[13]
  GI50: 4.42 µM
  TGI: 17.9 µM
[14]
  GI50: 4.69 µM
  TGI: 18.2 µM
[15]
  GI50: 15 µM
  TGI: 29 µM
[16]
  GI50: 5.76 µM
  TGI: 20 µM
[17]
  GI50: 11.3 µM
  TGI: 27.1 µM
[18]
  GI50: 3.78 µM
  TGI: 14.6 µM
[19]
  GI50: 18.8 µM
  TGI: 44.9 µM
[20]
  GI50: 4.63 µM
  TGI: 16 µM
[21]
  GI50: 4.92 µM
  TGI: 17.6 µM
[22]
  GI50: 8.1 µM
  TGI: 25 µM
[23]
  GI50: 3.75 µM
  TGI: 15 µM
[24]
  GI50: 6.89 µM
  TGI: 22.3 µM
[25]
  GI50: 6.91 µM
  TGI: 21.9 µM
[26]
  GI50: 12.7 µM
  TGI: 29.3 µM
[27]
  GI50: 10.2 µM
  TGI: 24.8 µM
[28]
  GI50: 11.5 µM
  TGI: 27.4 µM
[29]
  GI50: 13.2 µM
  TGI: 30.2 µM
[30]
  GI50: 12.2 µM
  TGI: 25.9 µM
[31]
  GI50: 7.13 µM
  TGI: 22.1 µM
[32]
  GI50: 14.9 µM
  TGI: 37 µM
[33]
  GI50: 10.7 µM
  TGI: 23.4 µM
[34]
  GI50: 10.4 µM
  TGI: 23 µM
[35]
  GI50: 11.9 µM
  TGI: 24.7 µM
[36]
  GI50: 15.8 µM
  TGI: 29.7 µM
[37]
  GI50: 14.6 µM
  TGI: 33.4 µM
[38]
  GI50: 7.61 µM
  TGI: 20.8 µM
[39]
  GI50: 7.57 µM
  TGI: 25.6 µM
[40]
  GI50: 10.6 µM
  TGI: 23.7 µM
[41]
  GI50: 11.5 µM
  TGI: 26.3 µM
[42]
  GI50: 10.5 µM
  TGI: 24.5 µM
[43]
  GI50: 13.2 µM
  TGI: 26.4 µM
[44]
  GI50: 21 µM
  TGI: 41 µM
[45]
  GI50: 14 µM
  TGI: 27.8 µM
[46]
  GI50: 3.19 µM
  TGI: 12 µM
[47]
  GI50: 15.5 µM
  TGI: 29 µM
[48]
  GI50: 4.69 µM
  TGI: 18.5 µM
[49]
  GI50: 13 µM
  TGI: 25.8 µM
[50]
  GI50: 6.24 µM
  TGI: 20.4 µM
[51]
  GI50: 3.81 µM
  TGI: 9.22 µM
[52]
  GI50: 11.1 µM
  TGI: 24.9 µM
[53]
  GI50: 5.34 µM
  TGI: 19.6 µM
[54]
  GI50: 17.2 µM
  TGI: 32.7 µM
[55]
  GI50: 10.2 µM
  TGI: 27.9 µM
[56]
  GI50: 16.4 µM
  TGI: 30.8 µM
[57]
  GI50: 11 µM
  TGI: 24.6 µM
[58]
  GI50: 11.7 µM
  TGI: 26 µM
